Key:
Yarrowia lipolytica = assay: Protection of yeast cells from death caused by hydrogen peroxide; type: cell-based
Plants cuttings = assay: Development of higher plants under darkness stress; type: in vivo
Protocol: Plants cuttings were grown at the artificial agarized medium MS supplemented with 1 μM SkQ1 (3 plants) and with no addition of SkQ1 as a control (3 plants). Cuttings were placed into 50 ml transparent tubes and grown in climate chamber for 3 weeks at 27° C. and periodical illumination (14 h of light, 10 h of darkness). Then the plants were subjected to darkness stress, i.e. were grown in complete darkness for 7 days.

[1] = Spontaneous oxidation of reduced (quinol) forms by air oxygen; type: physicochemical; details: 20 mM MOPS-KOH, pH=7.6; aerobic
Protocol: Stability of the reduced (quinols) forms of SkQ1 and MitoQ under aerobic conditions was examined by analysis of the absolute absorption spectra of these compounds in a range from 240 to 310 nm using double-beam spectrophotometer Pye Unicam SP1100, England. Quinone derivatives were reduced with sodium tetrahydroborate in the medium containing 20 mM MOPS-KOH, pH=7.6. […] The level of reduced quinones was estimated by the size of peak area using the weighing method; absolute absorption value at 267 nm (maximum absorption) was used as a control.

Hela cells = assay: Transmission of apoptotic signal between inducer and recipient slides; type: cell-based, human; details: for apoptosis at slide-recipient: TNF
Protocol: HeLa cells were used in these experiments. Cells grown on a glass slide were treated with different apoptosis-inducing agents (tumor necrosis factor (TNF), staurosporine, H2O2) for 3 h. Then the glass slide with cells (inducer) was washed to remove these reagents and placed into Petri plate to come into contact with glass slide (recipient) with cells grown in the absence of any apoptosis-inducing agent. After 16-18 h of subsequent growth and staining the cells with Hoechst 33342 as described above, apoptosis at both glass slides was analyzed.
Thus the main mediator of apoptosis signal was H2O2.

With `CC1=C(C)C(=O)C(CCCCCCCCCC[P+](c2ccccc2)(c2ccccc2)c2ccccc2)=CC1=O.[Br-]` [SkQ1, 2,3-dimethyl-1,4-benzoquinon-5-decyl-triphenylphosphonium bromide] as the compound, how does the “concentration as effective as 25 μM α-tocopherol” value (Yarrowia lipolytica) read?
Its value is 10 -fold lower.

And the “death of cells caused by hydrogen peroxide” value (Yarrowia lipolytica; 10 mM hydrogen peroxide)?
Its value is “partially prevents the death”.

And the “effect on survival compared among protectants” value (Yarrowia lipolytica; FIG. 14, α-tocopherol 25 μM)?
The value was “very similar”.

And the “colour of plants after darkness stress” value (Plants cuttings; 1 μM in MS medium, 7 days complete darkness)?
The value was “retained their green color”.

What about the “plant size in comparison to control plants” value (Plants cuttings; 1 μM, additional 20 days normal lighting) of the same compound?
Its value is “more than 3 times”.

And the “autooxidation of the reduced (quinol) form by air oxygen relative to MitoQ” value [1]?
Its value is “about three-fold lower”.

What about the “H2O2 concentration in the medium” value (Hela cells; 24 hours after contact, inductor cells preincubated) of the same compound?
The value was 40 ± 10 nM.

And the apoptosis at slide-recipient (Hela cells; preincubation of inducer with 20 nM)?
Its apoptosis at slide-recipient is 17±3%.

What about the apoptosis at slide-recipient (Hela cells; preincubation of recipient cells) of the same compound?
Its apoptosis at slide-recipient is 16±4%.

What about the “protective effect on recipient cells” value (Hela cells; corrected for 12±3% apoptosis from emetine) of the same compound?
The value was ~100%.

What about the “apoptosis at slide-inducer caused by TNF” value (Hela cells; inductor cells incubated with 20 nM for 6 days) of the same compound?
Its value is 90±5%.

What about the “H2O2 concentration in the medium” value (Hela cells; recipient cells preincubated) of the same compound?
The value was “did not lead to decrease of H2O2 concentration”.

Reference: patent publication US9328130B2, “Method of treating organism by biologically active compounds specifically delivered into mitochondria, pharmaceutical composition required for the use of the method and a compound applicable for this purpose” (MITOTECH S.A., priority 2005, dated 2016)
